“Also recorded” adds a separate entry of the source.
Experiments:
[1] = tested on: replicons containing HCV NS3 protease mutations T54A, A156S, A156T, V170A; test: HCV-796 cross-resistance study, 3-day replicon assay on replicons with NS3 protease resistance mutations; assay type: cell-based; conditions: V170A vs wild type
Protocol: Replicon cells are seeded at ˜5000 cells/well in 96-well collagen I-coated Biocoat plates (Becton Dickinson). Twenty-four hrs post-seeding, inhibitors diluted in DMSO are added to replicon cells (Huh-7 cells). The final concentrations of DMSO and fetal bovine serum are 1% and 10%, respectively. SCH 503034 is serially diluted at 1:2 for a 10-point titration. To each concentration of the SCH 503034, the second inhibitor, HCV-796 or rhIFN-α2b control is titrated in. IFN-α is serially diluted at 1:3, whereas HCV RNA polymerase inhibitor, HCV-796, is serially diluted at 1:2. […] All samples are tested in triplicate. Media and inhibitors are refreshed daily for 3 days at which point the cells are washed with PBS and lysed in 1× cell lysis buffer (Ambion cat #8721). The replicon RNA level is measured using real time PCR (Taqman assay) The amplicon is located in 5B. The PCR primers are: 5B.2F, ATGGACAGGCGCCCTGA (SEQ ID NO:1) and 5B.2R, […] (SEQ ID NO:2). The probe sequence is FAM-labeled CACGCCATGCGCTGCGG (SEQ ID NO:3). GAPDH RNA is used as an endogenous control and is amplified in the same reaction as NS5B (multiplex PCR) using primers and VIC-labeled probe recommended by the manufacturer (PE Applied Biosystem). […]

[2] = tested on: replicon variants with reduced susceptibility to HCV-796, including C316Y; test: Susceptibility of HCV-796 resistant replicons to SCH 503034; assay type: cell-based; conditions: 72 hours, vs wild-type replicon
Protocol: The antiviral activity of SCH 503034 against the replicon variants that have shown reduced susceptibility to HCV-796 is evaluated. Briefly, the replicon-containing cells are seeded in 96-well plates at a subconfluent density (7000 cells/well) in a medium containing 2% FBS without G418. SCH 503034 solubilized with 100% dimethylsulfoxide (DMSO) is prepared in a […], 2-fold dilution series, with a final DMSO concentration of 0.5% and a final volume of […]. The final concentrations for SCH 503034 are […], 6.3, 12.5, 25, 50, 100, 200, 400, 800, 1600 and 3200 nM. The plate is incubated for 72 hours at 37° C. and 5% CO2 before quantification of HCV and GAPDH RNAs.

Structure (SMILES) | Activity of HCV-796 on SCH 503034 resistant replicon cell lines [1] | Activity of SCH 503034 on HCV-796 resistant replicons [2] | Activity of SCH 503034 on HCV-796 resistant replicons ([2]; listed as SCH-503034)
CNC(=O)c1c(-c2ccc(F)cc2)oc2cc(N(CCO)S(C)(=O)=O)c(C3CC3)cc12 [HCV-796, 5-cyclopropyl-2-(4-fluoro-phenyl)-6-[(2-hydroxy-ethyl)-methanesulfonyl-amino]-benzofuran-3-carboxylic acid methylamide] | identical to that observed against the wild-type replicon; also recorded: active | – | –
CC(C)(C)NC(=O)N[C@H](C(=O)N1C[C@H]2[C@@H]([C@H]1C(=O)NC(CC1CCC1)C(=O)C(N)=O)C2(C)C)C(C)(C)C (stereo partly drawn) [SCH 503034, (1R,5S)—N-[3-amino-1-(cyclobutylmethyl)-2,3-dioxopropyl]-3-[2(S)-[[[(1,1-dimethylethyl)amino]carbonyl]amino]-3,3-dimethyl-1-oxobutyl]-6,6-dimethyl-3-azabicyclo[3.1.0]hexan-2(S)-carboxamide] | – | active | equivalent inhibitory activity

From patent US20070224167A1, “Novel HCV inhibitor combinations and methods” (priority 2006, published 2007)
